From patent US8987314B2, “Amide, urea or sulfone amide linked benzothiazole inhibitors of endothelial lipase” (Bristol-Myers Squibb Company, priority 2012, dated 2015)
Like-named read-outs stand apart in the source and are kept apart here.

How the values were obtained:
Endothelial lipase (EL) = Endothelial lipase (EL) (Homo sapiens (Human), UniProt Q9Y5X9); assay: EL assay: endothelial lipase activity with fluorescent substrate A10070 in DMPG vesicles; format: biochemical
Experimental: (§1) Endothelial lipase (EL) and hepatic lipase (HL) activities were measured using a fluorescent substrate, A10070, (Invitrogen, CA) doped into an artificial vesicle containing DMPG (Avanti Polar Lipids) as the excipient. Vesicles were prepared by combining 571 μL of 29 mM DMPG in a 1:1 mixture of MeOH and CHCl3 with 2000 μL of 1 mM A10070 in a 1:1 mixture of MeOH and CHCl3. The mixture was dried under nitrogen in multiple vials then resuspended in 20 mL total volume of 50 mM HEPES pH 8.0 buffer containing 50 mM NaCl and 0.2 mM EDTA. The sample was allowed to sit at room temperature for 15 min and then was sonicated 3×4 mins on ice with a Branson Sonicator using duty cycle 1. This preparation provides vesicles with a mole fraction of 0.11 for the FRET substrate.
(§2) The enzymatic assay was measured using 384-well white Optiplates. Each well contained 20 μL of assay buffer (50 mM HEPES pH 8.0, 50 mM NaCl and 1 mM CaCl2) and 0.25 μL of a DMSO solution containing a compound of interest. EL or HL (10 μL) was added and allowed to incubate with the compound for 30 min at 37° C. The source of EL was conditioned media obtained from HT-1080 cells that were transformed using RAGE technology (Athersys) to overexpress endogenous EL, and HL was partially purified from conditioned media obtained from COS cells overexpressing HL. The reaction was started by the addition of 10 μL of a 1:10 dilution of vesicles. The final total reaction volume was […]. The reaction rates were measured on a Gemini plate reader with an excitation wavelength of 490 nm and an emission wavelength of 530 nm. Readings were taken over a period of 60 minutes, and the slope between 300 and 900 secs of the readout was used to calculate the rate of the reaction.

hepatic lipase (HL) = hepatic lipase (HL) (Homo sapiens (Human), UniProt P11150); assay: HL assay: hepatic lipase activity with fluorescent substrate A10070 in DMPG vesicles; format: biochemical
hepatic lipase (HL), sequence (P11150 23-499, species assumed): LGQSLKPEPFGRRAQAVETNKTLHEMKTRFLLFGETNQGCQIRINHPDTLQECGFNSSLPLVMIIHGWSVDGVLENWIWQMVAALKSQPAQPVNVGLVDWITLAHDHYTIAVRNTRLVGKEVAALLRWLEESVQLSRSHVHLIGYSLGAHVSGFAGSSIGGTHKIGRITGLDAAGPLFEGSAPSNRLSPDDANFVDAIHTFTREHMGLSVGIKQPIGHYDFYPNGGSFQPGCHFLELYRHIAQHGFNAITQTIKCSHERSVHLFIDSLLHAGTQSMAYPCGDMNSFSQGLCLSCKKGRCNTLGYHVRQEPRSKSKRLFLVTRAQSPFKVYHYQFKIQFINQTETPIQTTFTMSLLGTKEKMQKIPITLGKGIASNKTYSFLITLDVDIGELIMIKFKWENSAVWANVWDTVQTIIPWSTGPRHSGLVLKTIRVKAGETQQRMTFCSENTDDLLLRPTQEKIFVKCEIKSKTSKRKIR
Experimental: as §1, §2

Endothelial lipase (EL), sequence (Q9Y5X9 21-500): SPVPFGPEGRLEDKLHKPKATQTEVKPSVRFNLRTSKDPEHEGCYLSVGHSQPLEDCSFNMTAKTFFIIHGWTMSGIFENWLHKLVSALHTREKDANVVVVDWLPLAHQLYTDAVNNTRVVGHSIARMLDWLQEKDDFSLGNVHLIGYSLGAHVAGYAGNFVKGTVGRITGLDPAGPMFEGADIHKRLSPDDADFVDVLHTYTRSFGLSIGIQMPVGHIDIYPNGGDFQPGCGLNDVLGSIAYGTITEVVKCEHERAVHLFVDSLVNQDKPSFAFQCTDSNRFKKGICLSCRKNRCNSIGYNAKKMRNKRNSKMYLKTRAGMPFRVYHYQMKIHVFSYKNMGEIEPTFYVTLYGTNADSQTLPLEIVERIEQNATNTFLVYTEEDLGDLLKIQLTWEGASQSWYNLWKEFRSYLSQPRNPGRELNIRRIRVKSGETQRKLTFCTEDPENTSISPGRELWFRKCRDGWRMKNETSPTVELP

Row | SMILES | IC50 (Endothelial lipase (EL); EL from conditioned media of HT-1080 cells, 30 min incubation with compound at 37° C., A10070/DMPG vesicles) | IC50 (hepatic lipase (HL); HL partially purified from conditioned media of COS cells, 30 min incubation with compound at 37° C., A10070/DMPG vesicles) | IC50 (Endothelial lipase (EL)) | IC50 (hepatic lipase (HL))
1 | CC1(O)CN(C(=O)c2ccc(-c3ccc4nc(C(C(=O)NCCS(N)(=O)=O)S(C)(=O)=O)sc4c3)cc2)C1 (stereo not shown) [Example B174, 2-(6-(4-(3-Hydroxy-3-methylazetidine-1-carbonyl)phenyl)benzo[d]thiazol-2-yl)-2-(methylsulfonyl)-N-(2-sulfamoylethyl)acetamide] | < 10 nM | 402 nM | – | –
2 | NS(=O)(=O)CCNC(=O)C(c1nc2ccc(-c3cncnc3)cc2s1)S(=O)(=O)CCN1CCOCC1 (stereo not shown) [Example B315, 2-[2-(morpholin-4-yl)ethanesulfonyl]-2-[6-(pyrimidin-5-yl)-1,3-benzothiazol-2-yl]-N-(2-sulfamoylethyl)acetamide] | – | – | 55.6 nM | 10000 nM
3 | CS(=O)(=O)C(C(=O)NCCS(N)(=O)=O)c1nc2cc(C(=O)NCCc3ccc(F)cc3)ccc2s1 (stereo not shown) [Example B394, N-[2-(4-fluorophenyl)ethyl]-2-{methanesulfonyl[(2-sulfa-moylethyl)carbamoyl]meth-yl}-1,3-benzothiazole-5-carboxamide] | – | – | 37.4 nM | 1600 nM
4 | COCCNC(=O)c1ccc(-c2cc3sc(C(C(=O)NCc4nnc(C)o4)S(=O)(=O)CCOC)nc3cc2F)cc1 (stereo not shown) [Example B258, 4-{5-fluoro-2-[(2-methoxy-ethanesulfonyl)({[(5-methyl-1,3,4-oxadiazol-2-yl)methyl]carbamoyl})meth-yl]-1,3-benzothiazol-6-yl}-N-(2-methoxyeth-yl)benzamide] | – | – | 57.2 nM | 889 nM
5 | NS(=O)(=O)CCNC(=O)C(c1nc2ccc(-c3ccc(C(=O)N4CCC(F)(F)C4)cc3)cc2s1)S(=O)(=O)CCC(F)(F)F (stereo not shown) [Example B170, 2-(6-(4-((3,3-difluoro-1-pyrrolidinyl)carbonyl)phen-yl)-1,3-benzothiazol-2-yl)-N-(2-sulfamoylethyl)-2-((3,3,3-trifluoropropyl)sul-fonyl)acetamide] | – | – | < 10 nM | 32 nM
6 | Cc1nnc(CNC(=O)C(c2nc3ccc(-c4ccc(C(=O)N5CC(F)(F)C5)cc4)cc3s2)S(C)(=O)=O)o1 (stereo not shown) [Example B257, 2-{6-[4-(3,3-difluoroazetidine-1-carbonyl)phen-yl]-1,3-benzothiazol-2-yl}-2-methanesulfonyl-N-[(5-methyl-1,3,4-oxadiazol-2-yl)methyl]a-cetamide] | – | – | 32 nM | 53.3 nM
7 | NS(=O)(=O)CCNC(=O)C(c1nc2ccc(-c3ccc(C(=O)NCCO)cc3)cc2s1)S(=O)(=O)CC1CC1 (stereo not shown) [Example B59, 4-(2-(1-((cyclopropylmeth-yl)sulfonyl)-2-oxo-2-((2-sulfamoylethyl)amino)eth-yl)-1,3-benzothiazol-6-yl)-N-(2-hydroxyethyl)ben-zamide] | – | – | < 10 nM | 102 nM
8 | NS(=O)(=O)CCNC(=O)C(c1nc2ccc(-c3ccnc(O)c3F)cc2s1)S(=O)(=O)CCC(F)(F)F (stereo not shown) [Example B375, 2-[6-(3-fluoro-2-hydroxy-pyridin-4-yl)-1,3-benzothiazol-2-yl]-N-(2-sulfamoylethyl)-2-(3,3,3-trifluoropropanesulfonyl)a-cetamide] | – | – | 14 nM | 787 nM
9 | NS(=O)(=O)CCNC(=O)C(c1nc2ccc(-c3ccc(C(=O)N4CC(F)(F)C4)cc3)cc2s1)S(=O)(=O)Cc1ccc(C(F)(F)F)cc1 (stereo not shown) [Example B357, 2-{6-[4-(3,3-difluoro-azetidine-1-carbonyl)phen-yl]-1,3-benzothiazol-2-yl}-N-(2-sulfamoyl-ethyl)-2-{[4-(trifluoromethyl)phen-yl]methanesulfonyl}a-cetamide] | – | – | 15 nM | 93.2 nM
10 | COCCNC(=O)c1ccc(-c2ccc3nc(C(C(=O)NCCS(N)(=O)=O)S(=O)(=O)CCC(F)(F)F)sc3c2)cc1 (stereo not shown) [Example B110, N-(2-methoxyethyl)-4-(2-(2-oxo-2-((2-sulfamoyl-ethyl)amino)-1-((3,3,3-trifluoropropyl)sulfonyl)eth-yl)-1,3-benzothiazol-6-yl)benzamide] | – | – | < 10 nM | 180 nM
11 | CS(=O)(=O)C(C(=O)NCCS(N)(=O)=O)c1nc2ccc(-c3ccc(C(=O)NCC(F)(F)F)cc3)cc2s1 (stereo not shown) [Example B41, 4-(2-(1-(methylsulfonyl)-2-oxo-2-((2-sulfamoylethyl)a-mino)ethyl)-1,3-benzothiazol-6-yl)-N-(2,2,2-trifluoroethyl)ben-zamide] | – | – | < 10 nM | 17 nM
12 | COCCS(=O)(=O)C(C(=O)NCCS(N)(=O)=O)c1nc2c(F)cc(-c3ccccc3)cc2s1 (stereo not shown) [Example B134, 2-(4-fluoro-6-phenyl-1,3-benzothiazol-2-yl)-2-((2-methoxyethyl)sulfonyl)-N-(2-sulfamoylethyl)a-cetamide] | – | – | < 10 nM | 18 nM

Other lines, results leading:

Row | IC50 (Endothelial lipase (EL); EL from conditioned media of HT-1080 cells, 30 min incubation with compound at 37° C., A10070/DMPG vesicles) | IC50 (hepatic lipase (HL); HL partially purified from conditioned media of COS cells, 30 min incubation with compound at 37° C., A10070/DMPG vesicles) | IC50 (Endothelial lipase (EL)) | IC50 (hepatic lipase (HL)) | SMILES
13 | – | – | < 10 nM | 144 nM | CS(=O)(=O)C(C(=O)NCCS(N)(=O)=O)c1nc2ccc(-c3ccc(S(=O)(=O)NCCO)cc3)cc2s1 (stereo not shown) [Example B57, 2-(6-(4-((2-hydroxyeth-yl)sulfamoyl)phenyl)-1,3-benzothiazol-2-yl)-2-(methylsulfonyl)-N-(2-sulfamoylethyl)acetamide]
14 | – | – | 4.8 nM | 1000 nM | CC1(O)CN(C(=O)c2ccc(-c3ccc4sc(C(C(=O)NCCS(N)(=O)=O)S(C)(=O)=O)nc4c3)cc2)C1 (stereo not shown) [Example B319, 2-{5-[4-(3-hydroxy-3-methylazetidine-1-carbonyl)phenyl]-1,3-benzothiazol-2-yl}-2-methanesulfonyl-N-(2-sulfamoylethyl)acetamide]
15 | – | – | < 10 nM | < 10 nM | COc1cccc(-c2ccc3nc(C(C(=O)NCCS(N)(=O)=O)S(C)(=O)=O)sc3c2)n1 (stereo not shown) [Example B185, 2-(6-(6-methoxy-2-pyridinyl)-1,3-benzothiazol-2-yl)-2-(methylsulfonyl)-N-(2-sulfamoylethyl)acetamide]
16 | – | – | < 10 nM | 91 nM | CS(=O)(=O)C(C(=O)NCCS(N)(=O)=O)c1nc2ccc(-c3ccc(C(=O)N4CCC(F)(F)C4)cc3)cc2s1 (stereo not shown) [Example B169, 2-(6-(4-((3,3-difluoro-1-pyrrolidinyl)carbonyl)phen-yl)-1,3-benzothiazol-2-yl)-2-(methylsulfonyl)-N-(2-sulfamoylethyl)a-cetamide]
17 | – | – | 1.4 nM | 2.8 nM | CS(=O)(=O)C(C(=O)NCCS(N)(=O)=O)c1nc2ccc(-c3ccc(Cl)cc3)cc2s1 (stereo not shown) [Example B207, 2-[6-(4-chlorophenyl)-1,3-benzothiazol-2-yl]-2-methanesulfonyl-N-(2-sulfamoylethyl)acetamide]
18 | – | – | 0.5 nM | 2.6 nM | COCc1ccc(-c2ccc3nc(C(C(=O)NCCS(N)(=O)=O)S(C)(=O)=O)sc3c2)cc1 (stereo not shown) [Example B63, 2-(6-(4-(methoxymethyl)phen-yl)-1,3-benzothiazol-2-yl)-2-(methylsulfonyl)-N-(2-sulfamoylethyl)a-cetamide]
19 | – | – | 0.5 nM | 2.2 nM | COc1cc(-c2ccc3sc(C(C(=O)NCCS(N)(=O)=O)S(C)(=O)=O)nc3c2)ccn1 (stereo not shown) [Example B88, 2-(5-(2-methoxy-4-pyridinyl)-1,3-benzothiazol-2-yl)-2-(methylsulfonyl)-N-(2-sulfamoylethyl)acetamide]
20 | – | – | 5.3 nM | 400 nM | Cc1cc2nc(C(C(=O)NCCS(N)(=O)=O)S(=O)(=O)Cc3ccccc3)sc2cc1-c1ccc(C(=O)N2CCOCC2)cc1 (stereo not shown) [Example B346, 2-{5-methyl-6-[4-(morpholine-4-carbon-yl)phenyl]-1,3-benzothiazol-2-yl}-2-phenylmethane-sulfonyl-N-(2-sulfamoylethyl)acetamide]
21 | – | – | 2.6 nM | 81.7 nM | CC1(O)CN(C(=O)c2ccc(-c3ccc4nc(C(C(=O)NCCS(N)(=O)=O)S(=O)(=O)Cc5ccc(OC(F)(F)F)cc5)sc4c3)cc2)C1 (stereo not shown) [Example B323, 2-{6-[4-(3-hydroxy-3-methylazetidine-1-carbonyl)phenyl]-1,3-benzothiazol-2-yl}-N-{2-sulfamoylethyl)-2-{[4-(trifluoromethoxy)phen-yl]methanesulfonyl}a-cetamide]
22 | – | – | 4.7 nM | 47 nM | NS(=O)(=O)CCNC(=O)C(c1nc2ccc(-c3ccc(C(=O)N4CC(F)(F)C4)cc3)cc2s1)S(=O)(=O)Cc1cccc(C(F)(F)F)c1 (stereo not shown) [Example B359, 2-{6-[4-(3,3-difluoro-azetidine-1-carbonyl)phen-yl]-1,3-benzothiazol-2-yl}-N-(2-sulfamoyl-ethyl)-2-{[3-(trifluoromethyl)phen-yl]methanesulfonyl}a-cetamide]
23 | – | – | 5.3 nM | 38.4 nM | COC[C@H](C)NC(=O)c1ccc(-c2ccc3nc(C(C(=O)NCCS(N)(=O)=O)S(=O)(=O)Cc4ccc(OC(F)(F)F)cc4)sc3c2)cc1 (stereo partly drawn) [Example B250, N-[(2S)-1-methoxypropan-2-yl]-4-(2-{[(2-sulfamoyl-ethyl)carbamoyl][4-(trifluoromethoxy)phen-yl]methanesulfonylmethyl}-1,3-benzothiazol-6-yl)ben-zamide]
